We go through six molecules from publication PMC7922564, “Molecular Insights into an Antibiotic Enhancer Action of New Morpholine-Containing 5-Arylideneimidazolones in the Fight against MDR Bacteria” (International Journal of Molecular Sciences, 2021).

“And” between values parts separate entries of the source, which are not always exact repeats. Identical values can stand only once. Like-named read-outs stand apart in the source and are kept apart here.

The test system of data set [1] is K. aerogenes Ea-289. In words: MIC reduction assay (antibiotic adjuvant), K. aerogenes Ea-289.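 Further: compound at no more than one quarter of its own MIC.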 The class given is cell-based, Klebsiella aerogenes. Here is the method: At first, MIC values of compounds were determined (Table S15, Supplementary). Next, their abilities to reduce MICs of the AcrAB-TolC substrates doxycycline (a tetracycline-class antibiotic) and erythromycin were studied (Table S16, Supplementary).
(§1) A subset of compounds, namely 7, 12–16, 19, 20, was also examined for the potential to increase the effectiveness of the antibiotics chloramphenicol, erythromycin, doxycycline, and the fluoroquinolone antibiotic norfloxacin, which all are substrates for AcrAB-TolC in K. aerogenes. In addition to strain Ea-289, the adjuvant-like effect of the compounds was investigated in strain CM-64, which also overexpresses the AcrAB-TolC efflux pump, although it has no changes in porin content, and in the Ea-289 derivatives, i.e., Ea-294 and Ea-308, which are devoid of AcrAB (Table S17, Supplementary).
(§2) Initially, MICs of a series of imidazolone derivatives were assessed against susceptible (reference) and MDR strains of staphylococci. Next, MIC values of the aforementioned antibiotics were determined in the absence and presence of imidazolone derivatives to assess the chemosensitizing effect of these compounds. […] 5-arylideneimidazolones and 5-arylidenethiazolones, which precipitated after addition to bacterial suspension in MH II medium, were tested at the highest concentrations at which precipitation was not observed. […] Antibacterial activity of compounds and antibiotics ampicillin, vancomycin, ciprofloxacin, and erythromycin was recorded as the lowest concentration of molecules able to inhibit bacterial growth after 18 h incubation at 37 °C. The incubation of bacterial strains exposed to oxacillin paired with compounds tested was conducted at 35 °C and extended to 24 h due to frequent occurrence of heterogeneity among MRSA strains. The results are presented as activity gain (A) parameter which was calculated as ratio of MIC of a certain antibiotic (MICAnt) to its MICAnt+Comp, observed in combination with a tested compound (7, 12–16, 19, or 20; Equation (1)). (1) A=(MICAnt/MICAnt+Comp)
(§3) MIC values of 5-arylideneimidazolone derivatives were determined following CLSI recommendations as in the methods described for S. aureus (Section 3.3.1).

Data set [2] in a line: Stability in acidic and basic conditions (TLC). The note with it: 1 = stable. The class given is physicochemical. Here is the method: Compounds 9–12, 15, and 19 were also tested for their stability in acidic and basic conditions. This assay was carried out for 48 h and samples were taken at six-time intervals (10 min, 1 h, 2 h, 3 h, 24 h, 48 h). Stability of the compounds was determined using the TLC method. […] In basic conditions, only compounds 10 and 15 were stable for 24 h. […] Results with details, including time of degradation of products obtained, are presented in the Supplementary (Tables S19 and S20). […]
VI. Stability in different pH conditions
Stability of chosen compounds (9-12, 15, and 19) were determined using the TLC method. Assays were performed in acidic and basic conditions and were carried out for 48 h. Samples were taken at six-time intervals (10 min., 1 h, 2 h, 3 h, 24 h, 48 h). […]
of spots observed on TLC, where 1 indicate that compound is stable (only TLC spot for proper compound was observed). Higher values point out how many products of degradation was observed, which can be calculating by subtracting one from number of spots.
Table S19. Results of chosen compounds (9-12, 15, 19) stability in acidic conditions.
Compound Number of TLC spots in defined time
Table S20. Results of chosen compounds (9-12, 15, 19) stability in basic conditions.

The next data set concerns MRSA 19449. In words: MIC determination (microdilution), MRSA 19449. In kind it is cell-based, Staphylococcus aureus. To be noted: Staphylococcus aureus, MRSA, no precipitation. On the procedure: (§4) Determination of MIC values, i.e., intrinsic antibacterial activity, of products and antibiotics (oxacillin, ampicillin, vancomycin, ciprofloxacin, and erythromycin) in the presence and absence of compounds tested was conducted by the use of a standard 2-fold microdilution method in cation-adjusted Mueller Hinton broth following the Clinical and Laboratory Standards Institute (CLSI) guidelines. The MIC values were detected using an Infinite M200 pro Tecan microplate reader (Tecan® France, SA-Lyon, France). MIC determinations were conducted in 96-well microtiter plates and repeated 3–4 times.
as §2
Background: Broth dilution looks for growth in wells or tubes with falling amounts of substance.

Data set [3] has as its system S. aureus ATCC 25923. In words: MIC determination (microdilution), S. aureus ATCC 25923. The class given is cell-based, Staphylococcus aureus. To be noted: Staphylococcus aureus, ATCC25923, unstarred values of column MIC value/no precipitation; read-out: MIC value. On the procedure: as §4, §2
In data set [4] the test system is K. aerogenes Ea-289 (overexpression of AcrAB-TolC). Description: MIC of compounds, K. aerogenes Ea-289. In kind it is cell-based. To be noted: Klebsiella aerogenes. Here is the method:
At first, MIC values of compounds were determined (Table S15, Supplementary). Next, their abilities to reduce MICs of the AcrAB-TolC substrates doxycycline (a tetracycline-class antibiotic) and erythromycin were studied (Table S16, Supplementary). […]
as §4, §3

A short description of data set [5]: Water solubility (UV spectroscopy). The class given is physicochemical. From the text: Six representatives of 5-arylideneimidazolones (9–12, 15, 19) were chosen for the determination of water solubility. UV spectroscopy was used for the estimation of concentrations of compounds according to the method described earlier. Acquired UV absorbance, calculated means, and standard deviations for tested compounds are presented in Supplementary Table S18. Solubility results, presented in Table 6, point out that compounds from the same group (A or B, Table 1 and Table 2) with the two-ring aromatic moiety are more soluble than compounds with the fluorene motive (Group A: 9, 10, 11 vs. 12; Group B: 15 vs. 19). […] The most soluble of tested compounds was compound 15, which could be dissolved in water at a concentration of up to 205.502 mM/L.
Water solubility was obtained using UV spectroscopy method. Absorbance of tested solutions of compounds 9-12, 15, and 19, respectively in suitable dilution, in three repetitions as well as calculated arithmetic means, solubility and standard deviations are presented in Table S18. the solubility results […]
Table S18. Results of absorbance used for estimation of water solubility of tested compounds (9-12, 15, 19).
Abbreviations: A1, A2,and A3, UV absorbance in first, second, and third repetition; Amean, arithmetic mean of absorbance from three repetitions; s, standard deviation for absorbance; S, water solubility; SD – standard deviation for solubility. […]

The subject of data set [6] is AcrAB-TolC efflux pump in K. aerogenes strain Ea-289. Further details: method as in PMID 30691112. To be noted: compound 100 µM; previously described; cited from earlier work.
Data set [7] relates to K. aerogenes Ea-294, Ea-308 (devoid of AcrAB). Description: MIC of compounds, K. aerogenes Ea-294, Ea-308. The class given is cell-based. The note with it: Klebsiella aerogenes, read-out: Minimal Inhibitory Concentration (MIC).
Text: as §1, §4, §3

The subject of data set [8] is K. aerogenes CM-64 (overexpression of AcrAB-TolC). Description: MIC of compounds, K. aerogenes CM-64. To be noted: Klebsiella aerogenes, read-out: Minimal Inhibitory Concentration (MIC). In kind it is cell-based.
Text: as §1, §4, §3

A further data set concerns K. aerogenes CM-64. Details: method as in earlier work. To be noted: doxycycline, chloramphenicol, norfloxacin, already published, cited from earlier work.
Data set [9] deals with S. aureus ATCC 25923. Details: method as in earlier work. The note with it: published previously, cited from earlier work.
Data set [10] deals with K. aerogenes Ea-289. Further details: method as in earlier work. To be noted: doxycycline, chloramphenicol, norfloxacin, already published, cited from earlier work.
Data set [11] relates to K. aerogenes Ea-294, Ea-308. Further details: method as in earlier work. The note with it: doxycycline, chloramphenicol, norfloxacin, already published, cited from earlier work.
The subject of data set [12] is S. aureus ATCC 25923. Details: method as in earlier work. The note with it: starred (*) value; published previously; cited from earlier work.
Where [13] appears, read: read-out: MIC value/no precipitation.

Take `Cl.O=C1N=C(N2CCC(N3CCOCC3)CC2)N/C1=C\c1cccc2ccccc12` (hydrate or solvate) [Compound 11, (Z)-5-(Naphthalen-1-ylmethylene)-2-(4-Morpholinopiperidin-1-yl)-Imidazol-4(5H)-one Hydrochloride]: the melting point (commonly the temperature, or range, at which the solid turns liquid) was in the range of 244 to 249 °C.
As for `Cl.O=C1N=C(N2CCC(N3CCOCC3)CC2)N/C1=C\c1cccc2ccccc12` [Compound 11, (Z)-5-(Naphthalen-1-ylmethylene)-2-(4-Morpholinopiperidin-1-yl)-Imidazol-4(5H)-one Hydrochloride], the “A (activity gain)” value in the data set with K. aerogenes Ea-289 [1] (doxycycline) and in the data set with K. aerogenes Ea-289 [1] (erythromycin) was 1 throughout. Further, the “Number of TLC spots” value stood at 1 in [2] (acidic conditions, 10 min); 1 in [2] (acidic conditions, 1 h); 1 in data set [2] (acidic conditions, 2 h); 1 in data set [2] (acidic conditions, 3 h); 1 in data set [2] (acidic conditions, 24 h); 2 in data set [2] (acidic conditions, 48 h). Besides, the “Number of TLC spots” value in [2] (basic conditions, 10 min) was found to be 1; in [2] (basic conditions, 1 h), 2; in [2] (basic conditions, 2 h), 2; in data set [2] (basic conditions, 3 h) it was 2; in [2] (basic conditions, 24 h), 2; in [2] (basic conditions, 48 h) it was 2. In addition, the figures for the MIC (in the data set on MRSA 19449; in the data set on S. aureus ATCC 25923 [3]; in data set [4] (setting [13])) were 31.2 to 250 µM, 31.2 to 250 µM and more than 250 µM, respectively. The solubility (usually the concentration that dissolves in the medium under given conditions) in [5] is 20200 µg/mL and 47300 µM.
Molecule `Cl.NC1=N/C(=C\c2cccc3ccccc23)C(=O)N1CCCN1CCOCC1` [Compound 18, (Z)-5-(Naphthalen-1-ylmethylene)-2-Amino-3-(3-Morpholinopropyl)-Imidazol-4(5H)-one Hydrochloride] returned a melting point of 265 to 268 °C. Further, in the data set on K. aerogenes Ea-289 [1] (doxycycline), the “A (activity gain)” value amounted to 1. Further, the “A (activity gain)” value with K. aerogenes Ea-289 [1] (erythromycin) was determined as 1. For the same molecule, the MIC in the data set on MRSA 19449 turned out to be 2000 µM. Moreover, the MIC in the data set on S. aureus ATCC 25923 [3] is 1000 µM. For the same molecule, in data set [4] (setting [13]), the MIC is more than 250 µM.
As to `NC1=N/C(=C\c2c3ccccc3cc3ccccc23)C(=O)N1CCCN1CCOCC1` [Compound 20], in data set [6], the “Inhibition efficiency (IE) towards extrusion of 1,2'-dNA” value was 44%. For the same molecule, the MIC in data set [7] was 2000 µM; in data set [8], more than 2000 µM; in the data set on MRSA 19449 it was 31.2 to 250 µM; in the data set on S. aureus ATCC 25923 [3] it was 31.2 to 250 µM; in data set [4] (read-out: Minimal Inhibitory Concentration (MIC)), more than 2000 µM. The MIC reduction entry (with K. aerogenes CM-64 (erythromycin + compound); in the data set with S. aureus ATCC 25923 [9] (oxacillin alone to oxacillin + compound); in the data set on K. aerogenes Ea-289 [10] (erythromycin + compound); in data set [11] (erythromycin + compound)) was “No effect” each time. The “A (activity gain)” value (with K. aerogenes CM-64 (erythromycin); in the data set with S. aureus ATCC 25923 [9] (oxacillin); in the data set with K. aerogenes Ea-289 [10] (erythromycin); in data set [11] (erythromycin)) was 1 each time. For the same molecule, the “no precipitation: highest possible concentration of a compound (due to precipitation) at which growth of bacteria was observed” value in the data set on S. aureus ATCC 25923 [12] is 0.0625 mM.
Molecule `Cl.O=C1N=C(N2CCC(N3CCOCC3)CC2)S/C1=C\c1ccc2c(c1)Cc1ccccc1-2` [Compound 22, (Z)-5-((9H-Fluoren-2-yl)methylene)-2-(4-Morpholinopiperidin-1-yl)Thiazol-4-one Hydrochloride] had a melting point of 244 to 246 °C. In the data set with K. aerogenes Ea-289 [1] (doxycycline), the “A (activity gain)” value is on record as 1. Moreover, the “A (activity gain)” value in the data set on K. aerogenes Ea-289 [1] (erythromycin) was 1. Besides, the MIC with MRSA 19449 is 31.2 to 250 µM. For the same molecule, the MIC in the data set on S. aureus ATCC 25923 [3] is 62.5 µM. Moreover, the MIC in data set [4] (setting [13]) was more than 250 µM.
Molecule `Cl.O=C1N=C(NCCCN2CCOCC2)S/C1=C\c1ccc2c(c1)Cc1ccccc1-2` [Compound 23, (Z)-5-((9H-Fluoren-2-yl)methylene)-2-((3-Morpholinopropyl)amino)Thiazol-4(5H)-one Hydrochloride] displayed a melting point of 243 to 245 °C. Besides, the “A (activity gain)” value in the data set with K. aerogenes Ea-289 [1] (doxycycline) is recorded as 1. The “A (activity gain)” value with K. aerogenes Ea-289 [1] (erythromycin) is reported as 1. In addition, in the data set with MRSA 19449, the MIC lay within 31.2 to 250 µM. Further, the MIC in the data set on S. aureus ATCC 25923 [3] is 31.2 to 250 µM. Further, in [4] (setting [13]), the MIC is more than 62.5 µM.
